# Assay results published in patent publication US7485651B2, “Compounds with activity on muscarinic receptors” (Acadia Pharmaceuticals, Inc., priority 1998, dated 2009).
# How the values were obtained:
# m3 receptor = biological target: T1, m3 receptor (Homo sapiens, UniProt P20309); test: R-SAT / NIH 3T3 cells transfected with m3 muscarinic receptor; assay type: cell-based
# T1 construct: expressed in transfected cells; host or cells: NIH 3T3 (ATCC CRL 1658)
# Text: A particularly convenient functional assay system is the receptor selection and amplification assay disclosed in U.S. Pat. No. 5,707,798 describing a method of screening for bioactive compounds by utilizing the ability of cells transfected with receptor DNA, e.g. coding for the different muscarinic subtypes, to amplify in the presence of a ligand of the receptor. Cell amplification is detected as increased levels of a marker also expressed by the cells.
# (§1) Transfection of cells with muscarinic receptor DNAs (general procedure) NIH 3T3 cells (available from the American Type Culture Collection as ATCC CRL 1658) were grown at 37° C. in a humidified atmosphere (5% CO2) incubator in Dulbecco's modified Eagle's medium (DMEM) supplemented with 4.5 g/l glucose, 4 mM glutamine, 50 units/m1 penicillin, 50 units/m1 streptomycin (available from Advanced Biotechnologies, Inc., Gaithersburg, Md.) and 10% calf serum (available from Sigma, St. Louis, […].). The cells were treated with trypsin-EDTA, spun down and plated at 2×10^6 per 15 cm dish in 20 m1 of DMEM containing 10% calf serum.
# (§2) The m1-m5 muscarinic receptor subtypes were cloned substantially as described by Bonner et al., Science 237, 1987, p. 527, and Bonner et al., Neuron 1, 1988, p. 403. For the m2 and m4 receptors, the cells were co-transfected with DNA encoding a chimera between the Gq protein and the five carboxy-terminal amino acids of the Gi protein (the Gq-i5 construct is described by Conklin et al., Nature 363, 1993, p.274).
# On day one, the cells were transfected using the Superfect transfection reagent (available from Qiagen, Valencia, Calif.) in accordance with the manufacturer's instructions. Receptor DNA, β-gal DNA (pSI-β-galactosidase available from Promega, Madison, Wis.), chimeric Gq-i5 DNA for the m2 and m4 receptor subtype assays, and salmon sperm DNA (available from Sigma, St. Louis, […].) as filler to a total of 20 μg DNA was added per plate. Prior to addition to the plates, 60 μl Superfect was added to the DNA and mixed thoroughly by pipetting up and down several times. The mixture was incubated at room temperature for 10-15 minutes. The media were aspirated, and 12 ml fresh DMEM containing 10% calf serum and 50 units/m1 penicillin/streptomycin was added to the plates. The DNA-Superfect solution was mixed once more with a pipette and added to the plate which was swirled to distribute the DNA mixture evenly over the surface. The cells were incubated overnight at 37° C. and 5% CO2. After incubation, the media were aspirated and the plates were rinsed once with a 15 m1 volume of Hank's Buffered Saline. The plates were swirled to ensure thorough rinsing. 20 m1 fresh DMEM supplemented with 10% calf serum and 50 units/m1 penicillin/streptomycin was added to the plates. The cells were incubated for 24-48 hours until the plates were 100% confluent.
# Assay of NIH 3T3 cells transfected with muscarinic receptor subtypes (general procedure) DMEM containing 2% Cyto-SF3 was heated at 37° C. in a water bath under sterile conditions. Sterile working stock solutions of test compounds to be assayed were prepared by diluting the compounds in DMEM to 8× the final concentration for testing. The compound (carbachol) to be included in the assay as a positive control was also diluted in DMEM to 8× the final concentration. 50 μL of the DMEM containing 2% Cyto-SF3 was added to each well of 96-well microtiter plates under sterile conditions. Then, 16 of compound solutions were added to the top wells of the plates, and dilution of the solutions was performed by taking 16 μl of the compound solutions from the top wells and pipetting them into the next row of wells. This procedure was repeated with each subsequent row of wells, except that 50 μl medium alone was added to the baseline control wells (the wells that contain medium and cells, but not test compounds) and plate control wells (wells containing medium, but not test compounds and cells). […]
# m2 receptor = biological target: T2, m2 receptor (Homo sapiens, UniProt P08172); test: NIH 3T3 cells transfected with m2 muscarinic receptor and Gq-i5; assay type: cell-based
# T2 construct: expressed in transfected cells; host or cells: NIH 3T3 (ATCC CRL 1658)
# T2 sequence (P08172 1-466): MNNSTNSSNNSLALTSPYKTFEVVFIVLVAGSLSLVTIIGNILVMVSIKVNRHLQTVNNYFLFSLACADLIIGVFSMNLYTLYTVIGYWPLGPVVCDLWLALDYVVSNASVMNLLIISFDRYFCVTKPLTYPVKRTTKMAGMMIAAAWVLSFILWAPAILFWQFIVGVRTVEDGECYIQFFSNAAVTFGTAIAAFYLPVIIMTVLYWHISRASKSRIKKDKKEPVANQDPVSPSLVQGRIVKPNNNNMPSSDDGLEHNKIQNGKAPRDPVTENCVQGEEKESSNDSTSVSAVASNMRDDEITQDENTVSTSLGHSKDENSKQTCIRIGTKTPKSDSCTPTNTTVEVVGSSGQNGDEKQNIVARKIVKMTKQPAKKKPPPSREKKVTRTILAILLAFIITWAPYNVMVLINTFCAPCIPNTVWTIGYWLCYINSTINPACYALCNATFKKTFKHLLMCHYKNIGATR
# Procedure: as §1, §2
# On day one, the cells were transfected using the Superfect transfection reagent (available from Qiagen, Valencia, Calif.) in accordance with the manufacturer's instructions. […]
# T1 sequence (P20309 whole entry): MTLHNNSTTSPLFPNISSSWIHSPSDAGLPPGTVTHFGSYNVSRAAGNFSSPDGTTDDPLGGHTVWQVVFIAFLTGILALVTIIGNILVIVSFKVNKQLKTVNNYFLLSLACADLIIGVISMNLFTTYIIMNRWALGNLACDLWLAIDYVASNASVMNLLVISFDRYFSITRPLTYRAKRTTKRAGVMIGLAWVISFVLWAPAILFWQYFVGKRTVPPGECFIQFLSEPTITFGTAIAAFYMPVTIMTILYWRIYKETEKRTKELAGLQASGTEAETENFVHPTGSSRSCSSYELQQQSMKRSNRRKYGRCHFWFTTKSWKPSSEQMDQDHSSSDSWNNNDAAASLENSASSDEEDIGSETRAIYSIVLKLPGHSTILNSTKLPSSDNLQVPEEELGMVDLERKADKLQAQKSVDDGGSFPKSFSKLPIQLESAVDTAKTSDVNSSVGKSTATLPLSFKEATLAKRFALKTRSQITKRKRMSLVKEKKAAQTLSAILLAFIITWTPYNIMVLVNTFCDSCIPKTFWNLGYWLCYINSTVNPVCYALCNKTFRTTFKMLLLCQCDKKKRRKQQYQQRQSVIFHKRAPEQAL
compound,measurement,setting,value
"CCCCC1CCN(CCCC(=O)c2ccccc2C)CC1 [Compound A, 4-n-Butyl-1-[4-(2-methylphenyl)-4-oxo-1-butyl]piperidine]",agonist activity at the m3 receptor,m3 receptor,only activated the m1 receptor subtype
same,Emax at 1.5 µM,"m3 receptor; NIH3T3, m3, compound at 1.5 μM, maximum = response to 10 μM carbachol, read-out: Cellular response as a percentage of the maximum response of the cells",7%
same,antagonism of carbachol-induced responses,m3 receptor; m3,not an antagonist
same,antagonism of carbachol-induced responses,m2 receptor,not an antagonist
